Legend:
[1] = In vitro intrinsic clearance in microsomes, rat; assay type: in vitro ADME; conditions: Assay 3, rat female microsomes, 0.5 uM compound, 0.5 mg/mL protein, 37° C.; for microsomal CLint at 0.5 uM: pH 7.4
Method: (§1) Determination of In vitro Intrinsic Clearance in Microsomes
(§2) NADP regeneration buffer for use in incubations was prepared fresh on the assay day. It contained 7.8 mg glucose-6-phosphate (mono-sodium salt), 1.7 mg NADP and 6 Units glucose-6-phosphate dehydrogenase per 1 mL of 2% sodium bicarbonate. Microsomes (human, female; cynomolgus monkey, female; dog, female; rat, female) were prepared in pH7.4 phosphate buffer and contained 0.625 mg protein/mL. Unless stated, all subsequent steps were performed by a Tecan Genesis 150/8 RSP. A 1.25 mM stock solution of the compounds was prepared in Acetonitrile/water (1:1). 25 ul of the 1.25 mM stock solution was added to 600 ul of Acetonitrile/water (1:1) to give a 50 uM solution. For each species, the 50 uM solutions (10 uL) were added to microsomes (790 uL) in a microplate (Porvair, 96 deepwell, square). 400 uL of the microsomal solution containing the compound was transferred to a microplate (Porvair, 96 deepwell, round) and was pre-warmed at 37° C. for five minutes prior to initiation of incubations. All incubations were initiated by addition of 100 uL of
(§3) NADP regeneration system to the pre-warmed microsomes. The mixtures were incubated at 37° C. in a Techne heating block. Following 0, 3, 6, 12 and 30 minutes incubation, 20 uL aliquots were taken and added to 100 uL of acetonitrile containing internal standard.
(§4) For determination of the rate of metabolism, incubations were performed at a compound concentration of 0.5 uM and a protein concentration of 0.5 mg/mL. The concentration of solvent in the incubation was 0.5%.
(§5) Test compound concentrations were determined by LC/MS/MS; results were reported as analyte:internal standard peak area ratios.
(§6) The rate of disappearance was calculated by fitting a single exponential decay to the concentration-time curve using Excel and intrinsic clearance was calculated using the following formula: […]

[2] = molecular target: T1, recombinant human Oxytocin-1 (hOT) receptor (Homo sapiens, UniProt P30559); assay: Antagonist affinity at human Oxytocin-1 receptors using FLIPR ([Ca2+]i); assay type: cell-based; conditions: Assay 1, CHO-hOT cells, oxytocin at EC80, read-out: fpKi
T1 construct: expressed in transfected cells
T1 sequence (P30559 1-389): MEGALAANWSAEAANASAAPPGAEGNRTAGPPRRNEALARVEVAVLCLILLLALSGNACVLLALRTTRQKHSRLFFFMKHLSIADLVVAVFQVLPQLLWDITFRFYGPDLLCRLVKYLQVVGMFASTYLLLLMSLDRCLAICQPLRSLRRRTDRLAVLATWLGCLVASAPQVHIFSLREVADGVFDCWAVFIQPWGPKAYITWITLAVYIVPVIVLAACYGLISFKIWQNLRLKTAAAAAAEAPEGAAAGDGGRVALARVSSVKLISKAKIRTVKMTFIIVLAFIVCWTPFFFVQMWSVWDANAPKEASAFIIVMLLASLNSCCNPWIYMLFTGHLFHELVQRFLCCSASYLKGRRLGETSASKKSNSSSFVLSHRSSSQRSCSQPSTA
Method: Determination of Antagonist Affinity at Human Oxytocin-1 Receptors using FLIPR
Adherent Chinese Hamster Ovary (CHO) cells, stably expressing the recombinant human Oxytocin-1 (hOT) receptor, were maintained in culture in DMEM:F12 medium (Sigma, cat no D6421), supplemented with 10% heat inactivated foetal calf serum
(Gibco/Invitrogen, cat. no. 01000-147), 2 mM L-glutamine (Gibco/Invitrogen, cat. no. 25030-024) and 0.2 mg/ml G418 (Gibco/Invitrogen, cat no. 10131-027). Cells were grown as monolayers under 95%:5% air:CO2 at 37° C. and passaged every 3-4 days using TrypLE™ Express (Gibco/Invitrogen, cat no. 12604-013).
Measurement of [Ca^2+]i using the FLIPR™
CHO-hOT cells were seeded into black walled clear-base 384-well plates (Nunc) at a density of 10,000 cells per well in culture medium as described above and maintained overnight (95%:5% air:CO2 at 37° C.). […] Cells were then incubated for an additional 30 min at 37° C. with either buffer alone or buffer containing OT antagonist, before being placed into a FLIPR™ (Molecular Devices, UK) to monitor cell fluorescence (λex=488 nm, λEM=540 nm) before and after the addition of a submaximal concentration of oxytocin (EC80).
Functional responses using FLIPR were analysed using Activity Base Version 5.0.10.

[3] = In vitro intrinsic clearance in microsomes, human; assay type: in vitro ADME; conditions: Assay 3, human female microsomes, 0.5 uM compound, 0.5 mg/mL protein, 37° C.; for microsomal CLint at 0.5 uM: pH 7.4
Method: as §1, §2, §3, §4, §5, §6

[4] = In vitro intrinsic clearance in microsomes, dog; assay type: in vitro ADME; conditions: Assay 3, dog female microsomes, 0.5 uM compound, 0.5 mg/mL protein, 37° C.; for microsomal CLint at 0.5 uM: pH 7.4
Method: as §1, §2, §3, §4, §5, §6

[5] = molecular target: T2, human recombinant oxytocin receptors (Homo sapiens, UniProt P30559); assay: Oxytocin binding assay ([3H]-oxytocin, CHO cell membranes); conditions: Assay 2, Ki from IC50 by Cheng and Prusoff
T2 construct: expressed in transfected cells; host or cells: membranes of CHO cells
T2 sequence (P30559 1-389): T1 sequence (P30559 1-389)
Method: Membranes were prepared from CHO cells expressing human recombinant oxytocin receptors. The membrane preparation was frozen in aliquots at −70° C. until used.
Membranes (˜50 ug) were incubated in 200 ul of assay buffer (50 mM Tris, 10 mM MgCl2, and 0.1% bovine serum albumin, pH 7.5) containing ˜2.4 nM of [3H]-oxytocin in the absence (total binding) or presence (non-specific binding) of 1 uM unlabeled oxytocin and increasing concentrations of the compounds in Examples 1 to 6 or comparator compounds. Incubations were performed at room temperature for 60 minutes. The reactions were stopped with 3 ml of ice cold buffer and filtered through Whatman GF/C filter paper presoaked in 0.3% polyethylenimine. The filters were washed 4 times with 3 ml buffer using a Brandel cell harvester. The filters were counted in 3 ml Ready Safe scintillation fluid (Beckman).
Specific binding represented approximately 90% of total binding.
IC50 values were determined from competition binding experiments using non-linear regression analysis (GraphPad) and converted to Ki using the method of Cheng and Prusoff, 1974. Data are reported as mean values.

[6] = In vitro intrinsic clearance in microsomes, cynomolgus monkey; assay type: in vitro ADME; conditions: Assay 3, cynomolgus monkey female microsomes, 0.5 uM compound, 0.5 mg/mL protein, 37° C.; for microsomal CLint at 0.5 uM: pH 7.4
Method: as §1, §2, §3, §4, §5, §6

Row | microsomal CLint at 0.5 uM [1] [mL/min/g] | Ki [2] [nM] | microsomal CLint at 0.5 uM [3] [mL/min/g] | microsomal CLint at 0.5 uM [4] [mL/min/g] | Ki [5] [nM] | microsomal CLint at 0.5 uM [6] [mL/min/g] | Microsomal Cl, Cynomolgus monkey [6] | Microsomal Cl, Human [3] | Microsomal Cl, Rat [1] | Microsomal Cl, Dog [4] | Structure (SMILES)
1 | 1 to 8 | 0.631 to 7.94 | 9 to 15 | 1 to 8 | 0.0316 to 1.58 | – | – | – | – | – | Cc1ccc([C@H](C(=O)N(C)C)N2C(=O)[C@@H](C3Cc4ccccc4C3)NC(=O)[C@H]2CC(C)C)cn1 [Comparator X, (2R)-2-[(3R,6R)-3-(2,3-dihydro-1H-inden-2-yl)-6-isobutyl-2,5-dioxopiperazin-1-yl]-N,N-dimethyl-2-(6-methylpyridin-3-yl)ethanamide, reference compound]
2 | 1 to 8 | – | 1 to 8 | 1 to 8 | – | 1 to 8 | – | – | – | – | CC[C@H](C)[C@@H]1C(=O)N[C@H](C2Cc3ccccc3C2)C(=O)N1[C@@H](C(=O)N1CCOCC1)c1ccc(C)nc1C [Example 3, (3R,6R)-3-(2,3-dihydro-1H-inden-2-yl)-1-[(1R)-1-(2,6-dimethyl-3-pyridinyl)-2-(4-morpholinyl)-2-oxoethyl]-6-[(1S)-1-methylpropyl]-2,5-piperazinedione]
3 | – | – | – | – | – | – | +++++, +++++ | ++, + | +, + | +, + | CC[C@H](C)[C@@H]1C(=O)N[C@H](C2Cc3ccccc3C2)C(=O)N1[C@@H](C(=O)N(C)C)c1cnc(C)cc1C [Example 4, (2R)-2-{(3R,6R)-3-(2,3-Dihydro-1H-inden-2-yl)-6-[(1S)-1-methylpropyl]-2,5-dioxo-1-piperazinyl}-2-(4,6-dimethyl-3-pyridinyl)-N,N-dimethylethanamide]

The remaining lines, values behind:

Row | Structure (SMILES) | microsomal CLint at 0.5 uM [1] [mL/min/g] | Ki [2] [nM] | microsomal CLint at 0.5 uM [3] [mL/min/g] | microsomal CLint at 0.5 uM [4] [mL/min/g] | Ki [5] [nM] | microsomal CLint at 0.5 uM [6] [mL/min/g] | Microsomal Cl, Cynomolgus monkey [6] | Microsomal Cl, Human [3] | Microsomal Cl, Rat [1] | Microsomal Cl, Dog [4]
4 | CC[C@H](C)[C@@H]1C(=O)N[C@H](C2Cc3ccccc3C2)C(=O)N1[C@@H](C(=O)NC)c1ccc(C)nc1C [Example 1, (2R)-2-{(3R,6R)-3-(2,3-Dihydro-1H-inden-2-yl)-6-[(1S)-1-methylpropyl]-2,5-dioxo-1-piperazinyl}-2-(2,6-dimethyl-3-pyridinyl)-N-methylethanamide] | 1 to 8 | – | 1 to 8 | 1 to 8 | – | 1 to 8 | – | – | – | –
5 | CC[C@H](C)[C@@H]1C(=O)N[C@H](C2Cc3ccccc3C2)C(=O)N1[C@@H](C(=O)N(C)C)c1ccc(C)nc1C [Example 2, (2R)-2-{(3R,6R)-3-(2,3-Dihydro-1H-inden-2-yl)-6-[(1S)-1-methylpropyl]-2,5-dioxo-1-piperazinyl}-2-(2,6-dimethyl-3-pyridinyl)-N,N-dimethylethanamide] | 1 to 8 | – | – | 1 to 8 | – | – | ++, +++ | +, + | – | –
6 | CC[C@H](C)[C@@H]1C(=O)N[C@H](C2Cc3ccccc3C2)C(=O)N1[C@@H](C(=O)NC)c1cnc(C)cc1C [Example 5, (2R)-2-{(3R,6R)-3-(2,3-Dihydro-1H-inden-2-yl)-6-[(1S)-1-methylpropyl]-2,5-dioxo-1-piperazinyl}-2-(4,6-dimethyl-3-pyridinyl)-N-methylethanamide] | 1 to 8 | – | 1 to 8 | 1 to 8 | – | 16 to 20 | – | – | – | –
7 | CC[C@H](C)[C@@H]1C(=O)N[C@H](C2Cc3ccccc3C2)C(=O)N1[C@@H](C(=O)N1CCOCC1)c1cnc(C)cc1C [Example 6, (3R,6R)-3-(2,3-dihydro-1H-inden-2-yl)-1-[(1R)-1-(4,6-dimethyl-3-pyridinyl)-2-(4-morpholinyl)-2-oxoethyl]-6-[(1S)-1-methylpropyl]-2,5-piperazinedione] | 1 to 8 | – | 1 to 8 | 1 to 8 | – | 16 to 20 | – | – | – | –

Reference: US9408851B2, “Compounds” (Glaxo Group Limited, priority 2004, dated 2016)
